Measured values taken from patent US20250066468A1, “LIPOSOME ENCAPSULATED AFFINITY DRUG” (L.E.A.F. HOLDINGS GROUP LLC, priority 2014, published 2025).

Experiments:
CD34+ stem cells = assay: Neutrophil differentiation of CD34+ stem cells, flow cytometry; assay type: cell-based, human; details: pemetrexed 2-50 μM; day 2; n=4 donors
Procedure: Experiments were performed as follows: CD34+ stem cells were obtained from ATCC. CD34+ cells were thawed at 37° C. for 1 minute. While on ice, the cells were transferred to cold stem cell medium (“StemSpan SFEM”-Stem Cell Tech. cat. #9650), 10% heat […] fetal bovine serum (HI FBS.) Each vial contained approximated 5×10^5 cell/ml. The cells were placed in 96 well tissue culture plates 35,000 cell/well. The neutrophils GROWTH media contained 100 ng/ml of stem cell factor human (SCF-Sigma H8416, lot #MKB[…]), 20 ng/ml of granulocyte colony-stimulation factor, human (G-CSF-Sigma H5541, lot #SLB[…]), 10 ng/ml of IL3 recombinant human (Sigma SRP3090, lot #1008AFC13) in […] media as above. […] The cells shown in the circle on the plots are maturing neutrophils expressing Mac-1 and CD34.

[1] = test system: phosphorylated p38 in SL0003 lung cancer cells; assay: p38 phosphorylation (PhosFlow); assay type: cell-based; details: 30 minutes, pemetrexed at 10 μM and 50 μM
Procedure: A second measure of sample liposome entering the cell is intracellular activation pathways. Cells respond to ligands binding to their receptors by activating kinases, in this case p38. The activated kinases can be measured by flow cytometry. The cells are incubated with sample liposome for 30 minutes and then lysed with a mild detergent. The activated p38 kinase is detected with an antibody by flow cytometry. A shift under the red line gate indicates a higher level of phosphorylated p38 (See FIG. 18A and 18BG). Cancer cells may have a higher basal level of activated kinases.
In addition, for FIG. 17, measuring p38 phosphorylation (PhosFlow) SL0003, normal colon cells, and normal breast cells were seeded at 10,000 cells/well. Cells were treated with: Fresh Pemetrexed ([…]), LEAF-001 (Liposome 070715 MPF; 5traut/50 Mab, 15traut/50Mab, 45traut/50Mab) (13.33× dilution), anti-folate receptor alpha (MABFRA H/L 1.01 mg/ml) (13.33× dilution) to determine the effect of the antibody in sample liposome, or no treatment. The cells were gently mixed and quickly placed in incubator. At each time point (30 minutes-4 hours), the plates were removed from the incubator and immediately fixed with formaldehyde for a final concentration of 2%. The plates were incubated for 5 minutes at room temperature. 25 μl of media was removed. […] The cells were read on the flow cytometer (in FL2).

[2] = test system: SL0003 (lung cancer) cells; assay: Cell cycle by propidium iodide DNA staining, flow cytometry; assay type: cell-based; details: titrated concentrations, day 5
Procedure: SL0003 (lung cancer) cells were prepared as described in the Example describing MTS assays (Example 5).
For this assay, the cells were cultured for 4 or 5 days (shown is day 5.). More specifically, […] cells (lung adenocarcinoma) were seeded in 96 well plates and treated the next day with titrated concentrations of LEAF-001 or pemetrexed. At day 5, cells were lysed with FACS buffer, 0.2% triton X-100, 0.3% formaldehyde. The DNA was stained with Propidium Iodine for 30 minutes […] to evaluate cell cycle
The cells were washed and evaluated by flow cytometry (FL2). FIG. 22A depicts a schematic showing the cell cycle. By inhibiting the formation of precursor purine and pyrimidine nucleotides, pemetrexed prevents the formation of DNA and RNA, which are required for the growth and survival of both normal cells and cancer cells.

[3] = neutral pH; cited from earlier work

neutrophil differentiation (CD34+ stem cells): neutrophil differentiation is inhibited
SMILES: Nc1nc2[nH]cc(CCc3ccc(C(=O)N[C@@H](CCC(=O)O)C(=O)O)cc3)c2c(=O)[nH]1 [pemetrexed, Pemetrexed disodium heptahydrate]
effect on p38 activation [1]: reduces p38 activation
cell cycle effect (accumulation in S phase) [2]: induces cells to accumulate in S phase
solubility [3]: 100 mg/mL
